Patent publication US20240308994A1, “ISOXAZOLE DERIVATIVE OR PHARMACEUTICALLY ACCEPTABLE SALT THEREOF AND USE THEREOF” (INDUSTRY-UNIVERSITY COOPERATION FOUNDATION HANYANG …, priority 2021, published 2024)
Read-outs that look alike come from different tables or passages of the source. Values belong to the compound of their own block, whether it stands above or below them.

Assays:
FMS (h) = target: T1, FMS (h) (Homo sapiens, UniProt P07333); assay: Kinase HotSpot radiometric assay, activity on CSF-1R (FMS); format: biochemical
T1 construct: purchased Reaction Biology Corp. (Kinase HotSpot service)
T1 sequence (P07333 20-972): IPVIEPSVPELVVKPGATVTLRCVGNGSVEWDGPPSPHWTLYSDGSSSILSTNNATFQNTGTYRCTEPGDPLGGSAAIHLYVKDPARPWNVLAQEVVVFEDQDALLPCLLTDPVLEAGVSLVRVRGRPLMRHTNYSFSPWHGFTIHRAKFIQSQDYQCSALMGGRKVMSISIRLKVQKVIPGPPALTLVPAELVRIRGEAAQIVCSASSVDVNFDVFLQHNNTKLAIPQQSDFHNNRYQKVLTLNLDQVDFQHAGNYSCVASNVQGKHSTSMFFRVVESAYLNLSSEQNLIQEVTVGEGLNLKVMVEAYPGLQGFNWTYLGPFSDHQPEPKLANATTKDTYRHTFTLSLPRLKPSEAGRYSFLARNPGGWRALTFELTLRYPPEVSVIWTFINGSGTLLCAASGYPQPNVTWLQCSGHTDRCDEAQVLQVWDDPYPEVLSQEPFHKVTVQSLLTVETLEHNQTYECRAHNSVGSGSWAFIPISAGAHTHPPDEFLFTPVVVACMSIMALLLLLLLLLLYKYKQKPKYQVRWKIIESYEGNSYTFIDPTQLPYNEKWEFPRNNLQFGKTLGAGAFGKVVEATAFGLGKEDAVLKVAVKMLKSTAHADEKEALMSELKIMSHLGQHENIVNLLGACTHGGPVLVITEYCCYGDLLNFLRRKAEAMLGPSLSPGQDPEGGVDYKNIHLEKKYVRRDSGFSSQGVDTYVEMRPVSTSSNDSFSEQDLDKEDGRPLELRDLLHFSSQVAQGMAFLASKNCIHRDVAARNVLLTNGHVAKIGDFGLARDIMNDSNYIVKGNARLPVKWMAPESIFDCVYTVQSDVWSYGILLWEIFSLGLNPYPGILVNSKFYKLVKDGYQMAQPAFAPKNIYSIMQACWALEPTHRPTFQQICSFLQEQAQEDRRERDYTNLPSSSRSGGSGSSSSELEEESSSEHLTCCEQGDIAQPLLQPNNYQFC

EMS and FLT3 = assay: Protein Kinase Profiling analysis, selectivity (FIG. 4); format: biochemical
PAMPA assay = format: in vitro ADME; details: read-out: PAMPA assay Pe Avg
plasma stability (PS) = format: in vitro ADME
metabolic stability (MS) = format: in vitro ADME
CSF-1R = target: T2, CSF-1R (Homo sapiens, UniProt P07333); assay: protein kinase profile for 50 selected protein Kinase (FIG. 5), CSF-1R; format: biochemical; details: single-dose concentration 1.0 μM
T2 construct: purchased Reaction Biology Corp. (Kinase HotSpot service)
T2 sequence (P07333 20-972): as above

CRaf = target: T3, CRaf (Homo sapiens, UniProt P04049); assay: protein kinase profile for 50 selected protein Kinase (FIG. 5), CRaf; format: biochemical; details: single-dose concentration 1.0 μM
T3 construct: purchased Reaction Biology Corp. (Kinase HotSpot service)
T3 sequence (P04049 whole entry): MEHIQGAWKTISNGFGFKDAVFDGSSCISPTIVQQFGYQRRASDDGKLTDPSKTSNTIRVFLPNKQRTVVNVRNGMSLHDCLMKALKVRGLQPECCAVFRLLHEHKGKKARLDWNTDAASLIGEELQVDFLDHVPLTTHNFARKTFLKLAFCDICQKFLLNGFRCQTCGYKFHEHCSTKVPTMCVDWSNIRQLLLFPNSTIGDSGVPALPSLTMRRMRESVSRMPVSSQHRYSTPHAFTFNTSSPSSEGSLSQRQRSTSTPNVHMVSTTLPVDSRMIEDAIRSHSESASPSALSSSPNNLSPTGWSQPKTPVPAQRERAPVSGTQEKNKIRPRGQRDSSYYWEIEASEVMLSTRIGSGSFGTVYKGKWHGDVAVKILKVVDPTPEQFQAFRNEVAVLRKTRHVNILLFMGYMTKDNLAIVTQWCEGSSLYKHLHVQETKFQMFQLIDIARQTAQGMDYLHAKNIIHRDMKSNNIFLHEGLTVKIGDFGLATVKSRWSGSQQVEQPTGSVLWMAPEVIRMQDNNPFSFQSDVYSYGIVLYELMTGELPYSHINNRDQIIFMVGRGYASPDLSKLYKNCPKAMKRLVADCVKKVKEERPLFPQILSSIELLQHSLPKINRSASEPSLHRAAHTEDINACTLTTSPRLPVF

BRafV600E = target: T4, BRafV600E (Homo sapiens, UniProt P15056, V600E); assay: protein kinase profile for 50 selected protein Kinase (FIG. 5), BRafV600E; format: biochemical; details: single-dose concentration 1.0 μM
T4 construct: purchased Reaction Biology Corp. (Kinase HotSpot service)
T4 sequence (P15056 416-766 V600E limits assumed): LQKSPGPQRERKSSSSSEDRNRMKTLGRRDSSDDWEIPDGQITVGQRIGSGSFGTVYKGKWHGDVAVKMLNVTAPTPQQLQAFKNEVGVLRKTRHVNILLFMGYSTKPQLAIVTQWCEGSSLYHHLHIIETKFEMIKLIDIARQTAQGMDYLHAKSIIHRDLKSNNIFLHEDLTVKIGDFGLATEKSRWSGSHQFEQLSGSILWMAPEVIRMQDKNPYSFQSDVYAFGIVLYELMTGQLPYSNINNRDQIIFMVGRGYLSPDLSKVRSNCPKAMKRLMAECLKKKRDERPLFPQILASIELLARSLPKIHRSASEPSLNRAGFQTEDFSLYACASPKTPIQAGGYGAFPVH

Lyn = target: T5, Lyn (Homo sapiens, UniProt P07948); assay: protein kinase profile for 50 selected protein Kinase (FIG. 5), Lyn; format: biochemical; details: single-dose concentration 1.0 μM
T5 construct: purchased Reaction Biology Corp. (Kinase HotSpot service)
T5 sequence (P07948 whole entry): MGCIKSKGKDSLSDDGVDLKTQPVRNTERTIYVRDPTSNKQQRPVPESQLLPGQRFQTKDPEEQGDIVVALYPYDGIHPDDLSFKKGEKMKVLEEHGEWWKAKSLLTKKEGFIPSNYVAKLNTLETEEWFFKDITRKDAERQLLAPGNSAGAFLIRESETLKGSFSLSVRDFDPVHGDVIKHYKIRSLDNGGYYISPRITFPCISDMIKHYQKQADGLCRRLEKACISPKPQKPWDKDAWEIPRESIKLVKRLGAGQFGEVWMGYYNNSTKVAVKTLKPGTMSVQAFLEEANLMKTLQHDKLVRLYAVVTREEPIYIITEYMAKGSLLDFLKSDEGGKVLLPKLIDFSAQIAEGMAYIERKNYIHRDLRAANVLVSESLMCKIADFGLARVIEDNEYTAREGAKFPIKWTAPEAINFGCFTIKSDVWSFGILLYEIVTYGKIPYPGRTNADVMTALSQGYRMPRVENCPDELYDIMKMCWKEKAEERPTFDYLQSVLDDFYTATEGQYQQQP

[1] = Table 3, read-out: IC50 (M) on FMS

IC50 (FMS (h); Table 2, read-out: IC50 (μm)): < 1e-07 M
IC50 (FMS (h); [1]): < 1e-07 M
kinase selectivity of EMS and FLT3 (EMS and FLT3): high selectivity
Structure (SMILES): Cc1cc(C(=O)Nc2ccc(C3CC(C)(C)NC(C)(C)C3)cc2C2=CCC(C)CC2)no1 (stereo not shown) [Compound 92b, 5-methyl-N-(4′-methyl-5-(2,2,6,6-tetramethylpiperidin-4-yl)-2′,3′,4,5′-tetrahydro-[1,1′-biphenyl]-2-yl)isoxazole-3-carboxamide]

Papp (PAMPA assay): 55.5 ×10⁻⁶ cm/s
PS (human) @30 min (plasma stability (PS); 30 min): > 100%
PS (human) @60 min (plasma stability (PS); 60 min): > 100%
Structure (SMILES): Cc1cc(C(=O)Nc2cc(NC(=O)c3cc(N4CCN(C)CC4)cc(C(F)(F)F)c3)ccc2C)no1 [Compound 5a, 5-methyl-N-(2-methyl-5-(3-(4-methylpiperazin-1-yl)-5-(trifluoromethyl)benzamido)phenyl)isoxazole-3-carboxamide]

IC50 (FMS (h); Table 1, read-out: IC50): > 1e-06 M
IC50 (FMS (h); [1]): > 1e-06 M
Structure (SMILES): Cc1cc(C(=O)Nc2ccc(C3CCNCC3)cc2C2CCCC2)no1 [Compound 66b, N-(2-Cyclopentyl-4-(piperidin-4-yl)phenyl)-5-methylisoxazole-3-carboxamide]

IC50 (FMS (h); [1]): < 1e-07 M
Structure (SMILES): CCN1CCC(c2ccc(NC(=O)c3cc(C)on3)c(C3=CCCCC3)c2)CC1 [Compound 70b, N-(5-(1-ethylpiperidin-4-yl)-2′,3′,4′,5′-tetrahydro-[1,1′-biphenyl]-2-yl)-5-methylisoxazole-3-carboxamide]

IC50 (FMS (h); [1]): 1e-07 to 1e-06 M
Structure (SMILES): Cc1cc(C(=O)Nc2ccc(C3CCN(C(=O)CN(C)C)CC3)cc2C2=CCCCC2)no1 [Compound 84b, N-(5-(1-(dimethylglycyl)piperidin-4-yl)-2′,3′,4′,5′-tetrahydro-[1,1′-biphenyl]-2-yl)-5-methylisoxazole-3-carboxamide]

IC50 (FMS (h); [1]): > 1e-06 M
Structure (SMILES): Cc1cc(C(=O)Nc2cc(NC(=O)c3ccc4ccccc4n3)ccc2C)no1 [Compound 5q, 5-methyl-N-(2-methyl-5-(quinoline-2-carboxamido)phenyl)isoxazole-3-carboxamide]

IC50 (FMS (h); Table 1, read-out: IC50): > 1e-06 M
IC50 (FMS (h); [1]): > 1e-06 M
Structure (SMILES): Cc1cc(C(=O)Nc2ccc(C3CCNCC3)cc2C2=CCCC2)no1 [Compound 61b, N-(2-(Cyclopent-1-en-1-yl)-4-(piperidin-4-yl)phenyl)-5-methylisoxazole-3-carboxamide]

IC50 (FMS (h); Table 2, read-out: IC50 (μm)): 1e-07 to 1e-06 M
IC50 (FMS (h); [1]): 1e-07 to 1e-06 M
Structure (SMILES): Cc1cc(C(=O)Nc2ccc(C3CC(C)(C)NC(C)(C)C3)cc2C2=CCCCCC2)no1 [Compound 92d, N-(2-(cyclohept-1-en-1-yl)-4-(2,2,6,6-tetramethylpiperidin-4-yl)phenyl)-5-methylisoxazole-3-carboxamide]

IC50 (FMS (h); Table 5, read-out: IC50 on CSF-1R): 1.03e-08 M
MS (human) %@60 min (metabolic stability (MS)): <10%
inhibitory activity against CSF-1R (CSF-1R): inhibitory activity
inhibitory activity against CRaf (CRaf): inhibitory activity
inhibitory activity against BRafV600E (BRafV600E): inhibitory activity
inhibitory activity against Lyn (Lyn): inhibitory activity
Structure (SMILES): Cc1ccc(NC(=O)c2cc(N3CCN(C)CC3)cc(C(F)(F)F)c2)cc1NC(=O)c1cnoc1C [Comparative example 1, reference compound]

IC50 (FMS (h); Table 1, read-out: IC50): < 1e-07 M
IC50 (FMS (h); [1]): < 1e-07 M
Structure (SMILES): Cc1cc(C(=O)Nc2ccc(C3CCNCC3)cc2C2=CCCCC2)no1 [Compound 60b, 5-methyl-N-(5-(piperidin-4-yl)-2′,3′,4′,5′-tetrahydro-[1,1′-biphenyl]-2-yl)isoxazole-3-carboxamide]

IC50 (FMS (h); [1]): < 1e-07 M
Structure (SMILES): Cc1cc(C(=O)Nc2ccc(C3CCC[N+](C)(C)CC3)cc2C2=CCC(C)(C)CC2)no1 (stereo not shown) [Compound 80c, 4-(4′,4′-dimethyl-6-(5-methylisoxazole-3-carboxamido)-2′,3′,4′,5′-tetrahydro-[1,1′-biphenyl]-3-yl)-1,1-dimethylazepan-1-ium]

IC50 (FMS (h); [1]): 1e-07 to 1e-06 M
Structure (SMILES): CC(=O)N1CCC(c2ccc(NC(=O)c3cc(C)on3)c(C3=CCCCC3)c2)CC1 [Compound 83b, N-(5-(1-acetylpiperidin-4-yl)-2′,3′,4′,5′-tetrahydro-[1,1′-biphenyl]-2-yl)-5-methylisoxazole-3-carboxamide]
